Source: the NIST ThermoML archive (doi:10.1016/j.jct.2017.05.001)

Test: wn = mass fraction of the nth substance listed
Details: Liquid; for viscosity: Falling or rolling sphere viscometry; for mass density: Vibrating tube method

CN(C)CCO [2-(N,N-dimethylamino)ethanol] + O
Details | mass density, w1 = 0.1005 [kg/m3] | mass density, w1 = 0.202 [kg/m3] | mass density, w1 = 0.3005 [kg/m3] | mass density, w1 = 0.3995 [kg/m3] | viscosity, w1 = 0.1005 [mPa·s] | viscosity, w1 = 0.202 [mPa·s] | viscosity, w1 = 0.3005 [mPa·s] | viscosity, w1 = 0.3995 [mPa·s]
373.15 K, 30000 kPa | 964.4 | 956.3 | 947.9 | 938.5 | 0.3711 | 0.4702 | 0.6099 | 0.7742
373.15 K, 40000 kPa | 968.7 | 960.9 | 952.4 | 943.3 | 0.3746 | 0.4771 | 0.6239 | 0.7998
373.15 K, 50000 kPa | 972.8 | 964.9 | 956.6 | 947.6 | – | – | – | –
373.15 K, 60000 kPa | 976.8 | 968.9 | 960.9 | 952.1 | 0.3833 | 0.4923 | 0.6493 | 0.8409
373.15 K, 70000 kPa | 980.9 | 973 | 965 | 956.2 | – | – | – | –
373.15 K, 80000 kPa | 984.7 | 976.9 | 969.1 | 960.4 | 0.3916 | 0.5073 | 0.6735 | 0.8827
373.15 K, 90000 kPa | 988.6 | 980.6 | 972.8 | 964.3 | – | – | – | –
373.15 K, 100000 kPa | 992.1 | 984.3 | 976.4 | 968.1 | 0.3984 | 0.5213 | 0.6978 | 0.9306
373.15 K, 110000 kPa | 995.9 | 988 | 980.3 | 971.9 | – | – | – | –
373.15 K, 120000 kPa | 999.5 | 991.6 | 983.8 | 975.6 | – | – | – | –
373.15 K, 130000 kPa | 1003 | 995 | 987.3 | 979.1 | – | – | – | –
373.15 K, 140000 kPa | 1006.3 | 998.4 | 990.7 | 982.6 | – | – | – | –
393.15 K, 100 kPa | 934.5 | 925.2 | 915 | 903.9 | – | – | – | –
393.15 K, 500 kPa | 934.9 | 925.5 | 915.5 | 904.3 | – | – | – | –
393.15 K, 1000 kPa | 935.1 | 925.7 | 915.7 | 904.6 | – | – | – | –
393.15 K, 2000 kPa | 935.6 | 926.3 | 916.3 | 905.2 | – | – | – | –
393.15 K, 5000 kPa | 937.1 | 927.9 | 917.9 | 907 | 0.2917 | 0.3533 | 0.4325 | 0.5209
393.15 K, 10000 kPa | – | – | – | – | 0.2952 | 0.3557 | – | –
